Results from publication PMC2751796 (Pharmacology & therapeutics, 2009).
Where two headings read alike, the source gives them in different places.

How the values were obtained:
[1] = molecular target: rOAT3; details: inhibition of rOAT3-mediated 6-mercaptopurine transport; ref Mori et al., 2004; cited from earlier work
[2] = ref Heideman et al., 1986; cited from earlier work
[3] = cited from earlier work
[4] = mouse, in vivo; cited from earlier work
[5] = test system: Mrp2; details: ref Potschka et al., 2003; cited from earlier work
[6] = test system: MRPs, organic anion transporters; details: ref Potschka et al., 2003; cited from earlier work
[7] = mice, 50 mg/kg, PO; ref Hubensack et al., 2008; cited from earlier work
[8] = test system: P-gp; details: 150 mg, iv; ref Kurnik et al., 2008; cited from earlier work
[9] = highest dose; ref Bankstahl et al., 2008; cited from earlier work
[10] = test system: P-gp; details: ref de Vries et al., 2007; cited from earlier work
[11] = test system: P-gp; details: AUC, cited from earlier work
[12] = test system: Bcrp; details: ref de Vries et al., 2007; cited from earlier work
[13] = test system: P-gp and BCRP; details: ref de Vries et al., 2007; cited from earlier work
[14] = test system: Bcrp; details: cited from earlier work
[15] = test system: P-gp; set-up: species or system human; details: at 5.6 μM cyclosporine blood concentration
[16] = test system: P-gp; details: ref Passchier et al., 2003; cited from earlier work
[17] = test system: P-gp; details: rhesus monkey, 8 mg/kg; ref Zoghbi et al., 2008; cited from earlier work
[18] = test system: P-gp; details: cited from earlier work
[19] = test system: Ent1; details: mice; ref Lepist et al., 2008; cited from earlier work
[20] = intraventricularly injected, ref Bode et al., 1980
[21] = Elacridar (50 and 100 mg/kg, PO), ref de Vries et al., 2007

For `CN(Cc1cnc2nc(N)nc(N)c2n1)c1ccc(C(=O)N[C@@H](CCC(=O)O)C(=O)O)cc1` [Methotrexate], the “Ki relative to estimated brain concentration in patients receiving chemotherapy” value [1] is listed as 17.5 fold, the “CNS distribution in untreated subjects (ventricular CSF / plasma AUC ratio)” value [2] is listed as 0.02 (ventricular CSF / plasma AUC ratio) and the “Increase of CSF concentrations by probenecid” value ([3]; 4 patients, ref Howell et al., 1979) is listed as 2.8 to 4.2 fold. For the same compound, the “Effect of probenecid 1250 mg/m^2 daily on efflux kinetics” value [3, 20] was “did not change”, the “Extension of terminal half life (CSF) by probenecid 2500 mg/m^2” value [3, 20] was “up to 53%” and the “CSF concentrations with vincristine vs. monotherapy” value ([3]; patient with lymphoma, ref Tejada & Zubrod, 1979) was 2.5 fold. For the same compound, the “Effect of vindesine on CSF concentration” value ([3]; ref Tubiana et al., 1985) was “did not affect”.

For `CCC1(c2ccccc2)C(=O)NC(=O)NC1=O` [Phenobarbital], the “Brain uptake ratio in WT, untreated mice” value [4] is listed as “∼ 0.27-0.4”.

For `O=C1NC(=O)C(c2ccccc2)(c2ccccc2)N1` [Phenytoin], the “Extracellular concentrations and anticonvulsant activity vs. rats that do not lack Mrp2” value [5] is given as “two-fold greater” and the “Enhancement of brain penetration and anticonvulsant activity by probenecid” value [6] is given as “up to two-fold”.

In the case of `COc1cc2c(cc1OC)CN(CCc1ccc(NC(=O)c3cc(OC)c(OC)cc3NC(=O)c3cnc4ccccc4c3)cc1)CC2` [Tariquidar], the “Inhibitor concentration (brain)” value [7] is given as 3-9 nmol/g (brain) (∼2-fold greater in plasma), the “Inhibition of lymphocyte P-gp activity” value [8] is given as “completely inhibited” and the Tariquidar blood concentration [9] is given as 1402 ng/mL. For the same compound, the Tariquidar brain concentration [9] was 4131 ng/mL.

For `CC[C@@]1(O)C(=O)OCc2c1cc1n(c2=O)Cc2cc3c(CN(C)C)c(O)ccc3nc2-1` [Topotecan], the “Brain-to-plasma AUC ratio in Mdr1a/b-/- mice compared to WT controls” value [10] is given as “two times higher”, the “Fold change in brain uptake ratio in inhibitor-treated vs. control mice” value [11, 21] is given as 1.6 fold and the “Fold change in brain uptake ratio in inhibitor-treated vs. control mice (value corrected for drug in vasculature)” value [11, 21] is given as 1.7 fold. For the same compound, the “Fold change in brain uptake ratio in inhibitor-treated vs. control mice” value ([11]; Gefitinib (200 mg/kg, PO), microdialysis, ref Zhuang et al., 2006) was 1.7 ^b, AUC fold, the “Brain-to-plasma AUC ratio in Bcrp-/- mice compared to WT controls” value [12] was “not different” and the “Increase of brain-to-plasma AUC ratio in Mdr1a/b-/-/Bcrp-/- mice” value [13] was 3.2 fold. For the same compound, the “Increase of oral bioavailability with elacridar in Mdr1a/b-/- mice” value ([14]; ref Jonker et al., 2000) was “more than 6 fold”, the “Increase of placental transfer with elacridar in Mdr1a/b-/- mice” value ([14]; ref Jonker et al., 2000) was over 2 fold and the “Increase of brain distribution with elacridar in Mdr1a/b-/- mice” value ([14]; ref de Vries et al., 2007) was 1.6 fold.

For `CN([11CH3])C(=O)C(CCN1CCC(O)(c2ccc(Cl)cc2)CC1)(c1ccccc1)c1ccccc1` [[^11C]-Loperamide], the “Predicted increase in CNS distribution in humans” value [15] is given as 56-412%, the “Increase in brain radioactivity with cyclosporine in pigs” value [16] is given as “up to 7 fold” and the “Increase in plasma radioactivity with DCPQ” value [17] is given as 16%. For the same compound, the “Increase in distribution of radioactivity at the human BBB on P-gp inhibition” value ([18]; data obtained so far) was about 100% and the “Increase of brain [^11C]-loperamide with cyclosporine in humans” value ([18]; intravenous infusion 10 mg/kg/2 hr, ref Passchier et al., 2008) was about 110%.

In the case of `OC[C@H]1O[C@@H](n2cnc3c(N[C@@H]4CCOC4)ncnc32)[C@H](O)[C@@H]1O` [tecadenoson], the “Decrease in brain AUC with nitrobenzyl-mercaptopurine ribonucleoside” value [19] is listed as 2.5 fold.
